From patent publication US5488051A, “Substituted 5,6-dihydro-5-oxo-1,4-dithiino-(2,3-d)-pyridazine-2,3-dicarbonitriles, compositions containing them and their use as antimicrobials” (The Dow Chemical Company, priority 1994, dated 1996)
Read-outs that look alike come from different tables or passages of the source.

Tests used:
Bacillus subtilis (Bs) = assay: MIC for Bacillus subtilis, nutrient agar; assay type: cell-based, Bacillus subtilis ATCC 8473; details: 48 h
Experimental: (§1) The minimum inhibitory concentration (MIC) for the compounds listed in Table I is determined for 9 bacteria, using nutrient agar; and 7 yeast and fungi, using malt yeast agar. A one percent solution of the test compound is prepared in a mixture of acetone and water.
(§2) Nutrient agar is prepared at pH 6.8, representing a neutral medium, and at pH 8.2, representing an alkaline medium. The nutrient agars are prepared by adding 23 g of nutrient agar to one-liter of deionized water. In addition, the alkaline medium is prepared by adjusting a 0.04M solution of N-[tris-(hydroxymethyl)methyl]-glycine buffered deionized water with concentrated sodium hydroxide to a pH of 8.5.
(§3) The test tubes containing the malt yeast agar and the nutrient agar are cooled in a water bath until the temperature of the agar is 48° C. Then, an appropriate amount of the one percent solution of the test compound is added (except in the controls where no compound is added) to the respective test tubes so that the final concentrations are zero (0), 1.0, 2.5, 5, 10, 25, 50, 100, 250 and 500 parts per million of the test compound in each of the respective type of agar. The contents of each of the test tubes are then transferred to separate petri plates. After drying for 24 hours, the petri plates containing nutrient agar are inoculated with bacteria and those containing malt yeast agar are inoculated with yeast and fungi.
(§4) The inoculation with bacteria is accomplished by using the following procedure. Twenty-four hour-cultures of each of the bacteria are prepared by incubating the respective bacteria in tubes containing nutrient broth for 24 hours at 30° C. in a shaker. Dilutions of each of the 24 hour-cultures are made so that nine separate suspensions (one for each of the nine test bacteria) are made, each containing 10^8 colony forming units (CFU) per mL of suspension of a particular bacteria. Aliquots of 0.3 mL of each of the bacterial suspensions are used to fill the individual wells of Steer's Replicator. For each microbial suspension, 0.3 mL was used to fill three wells (i.e., three wells of 0.3 mL each) so that for the nine different bacteria, 27 wells are filled. The Steer's Replicator is then used to inoculate both the neutral and alkaline pH nutrient agar petri plates.
(§5) The inoculated petri plates are incubated at 30° C. for 48 hours and then read to determine if the test compound which is incorporated into the agar prevented growth of the respective bacteria.
(§6) Table II list the bacteria, yeast and fungi used in the MIC test described above along with their respective American Type Culture Collection (ATCC) identification numbers.

Trichoderma viride (Tv) = assay: MIC for Trichoderma viride, malt yeast agar; assay type: cell-based, Trichoderma viride ATCC 8678; details: 72 h, read-out: Minimum Inhibitory Concentration (MIC), Tv
Experimental: as §1
(§7) Malt yeast agar is prepared by adding 3 g yeast extract and 45 g malt agar per liter of deionized water. The specific agar is dispensed in 30 mL aliquots into 25×200 mm test tubes, capped and autoclaved for 15 minutes at 115° C.
as §3
(§8) The inoculation with the yeast and fungi is accomplished as follows. Cultures of yeast and fungi are incubated for seven days on malt yeast agar at 30° C. These cultures are used to prepare suspensions by the following procedure. A suspension of each organism is prepared by adding 10 mL of sterile saline and 10 microliters of octylphenoxy polyethoxy ethanol to the agar slant of yeast or fungi. The sterile saline/octylphenoxy polyethoxy ethanol solution is then agitated with a sterile swab to suspend the microorganism grown on the slant. Each resulting suspension is diluted into sterile saline (1 part suspension: 9 parts sterile saline). Aliquots of these dilutions are placed in individual wells of Steer's Replicator and petri plates inoculated as previously described. The petri plates are incubated at 30° C. and read after 48 hours for yeast and 72 hours for fungi.
as §6

Proteus vulgaris (Pv) = assay: MIC for Proteus vulgaris, nutrient agar; assay type: cell-based, Proteus vulgaris ATCC 881; details: 48 h
Experimental: as §1, §2, §3, §4, §5, §6

[1] = test system: Staphylococcus aureus (Sa); assay: MIC for Staphylococcus aureus, nutrient agar; assay type: cell-based, Staphylococcus aureus ATCC 6538; details: 48 h
Experimental: as §1, §2, §3, §4, §5, §6

Aspergillus niger (An) = assay: MIC for Aspergillus niger, malt yeast agar; assay type: cell-based, Aspergillus niger ATCC 16404; details: 72 h, read-out: Minimum Inhibitory Concentration (MIC), An
Experimental: as §1, §7, §3, §8, §6

[2] = test system: Enterobacter aerogenes (Ea); assay: MIC for Enterobacter aerogenes, nutrient agar; assay type: cell-based, Enterobacter aerogenes ATCC 13048; details: Klebsiella aerogenes, 48 h
Experimental: as §1, §2, §3, §4, §5, §6

[3] = test system: Aureobasidium pullulan (Ap); assay: MIC for Aureobasidium pullulan, malt yeast agar; assay type: cell-based, Aureobasidium pullulan ATCC 16622; details: read-out: Minimum Inhibitory Concentration (MIC), Ap
Experimental: as §1, §7, §3, §8, §6

[4] = test system: Pseudomonas aeruginosa (Pa); assay: MIC for Pseudomonas aeruginosa, nutrient agar; assay type: cell-based, Pseudomonas aeruginosa ATCC 10145; details: 48 hours, read-out: Minimum Inhibitory Concentration (MIC), Pa
Experimental: as §1, §2, §3, §4, §5, §6

Candida albicans (Ca) = assay: MIC for Candida albicans, malt yeast agar; assay type: cell-based, Candida albicans ATCC 10231; details: 48 h, read-out: Minimum Inhibitory Concentration (MIC), Ca
Experimental: as §1, §7, §3, §8, §6

[5] = test system: Klebsiella pneumonias (Kp); assay: MIC for Klebsiella pneumonias, nutrient agar; assay type: cell-based, Klebsiella pneumonias ATCC 8308; details: 48 h
Experimental: as §1, §2, §3, §4, §5, §6

Escherichia coli (Ec) = assay: MIC for Escherichia coli, nutrient agar; assay type: cell-based, Escherichia coli ATCC 11229; details: 48 h
Experimental: as §1, §2, §3, §4, §5, §6

[6] = test system: Penicillium chrysogenum (Pc); assay: MIC for Penicillium chrysogenum, malt yeast agar; assay type: cell-based, Penicillium chrysogenum ATCC 9480; details: 72 h, read-out: Minimum Inhibitory Concentration (MIC), PC
Experimental: as §1, §7, §3, §8, §6

Saccharomyces cerevisiae = assay: MIC for Saccharomyces cerevisiae, malt yeast agar; assay type: cell-based, Saccharomyces cerevisiae ATCC 4105; details: 48 h, read-out: Minimum Inhibitory Concentration (MIC), Sc
Experimental: as §1, §7, §3, §8, §6

Fusarium oxysporum (Fo) = assay: MIC for Fusarium oxysporum, malt yeast agar; assay type: cell-based, Fusarium oxysporum ATCC 48112; details: 72 h, read-out: Minimum Inhibitory Concentration (MIC), Fo
Experimental: as §1, §7, §3, §8, §6

[7] = test system: Pseudomonas aeruginosa (PRD-10); assay: MIC for Pseudomonas aeruginosa PRD-10, nutrient agar; assay type: cell-based, Pseudomonas aeruginosa ATCC 15442; details: 48 h
Experimental: as §1, §2, §3, §4, §5, §6

Salmonella choleraesuis = assay: MIC for Salmonella choleraesuis, nutrient agar; assay type: cell-based, Salmonella choleraesuis ATCC 10708; details: Salmonella enterica, 48 h
Experimental: as §1, §2, §3, §4, §5, §6

SMILES: ClC=CC[N+]12CN3CN(CN(C3)C1)C2.[Cl-] [STANDARD I, 1-(3-chloroallyl)-3,5,7-triaza-1-azoniaadamantane chloride, reference compound]
- MIC (Bacillus subtilis (Bs); pH 6.8, read-out: Minimum Inhibitory Concentration (MIC), Bs): 50 µg/mL
- MIC (Bacillus subtilis (Bs); pH 8.2, read-out: Minimum Inhibitory Concentration (MIC), Bs): 250 µg/mL
- MIC (Trichoderma viride (Tv)): > 500 µg/mL
- MIC (Proteus vulgaris (Pv); pH 6.8, read-out: Minimum Inhibitory Concentration (MIC), Pv): 50 µg/mL
- MIC (Proteus vulgaris (Pv); pH 8.2, read-out: Minimum Inhibitory Concentration (MIC), Pv): 250 µg/mL
- MIC ([1]; pH 6.8, read-out: Minimum Inhibitory Concentration (MIC), Sa): 100 µg/mL
- MIC ([1]; pH 8.2, read-out: Minimum Inhibitory Concentration (MIC), Sa): 250 µg/mL
- MIC (Aspergillus niger (An)): > 500 µg/mL
- MIC ([2]; pH 6.8, read-out: Minimum Inhibitory Concentration (MIC), Ea): 100 µg/mL
- MIC ([2]; pH 8.2, read-out: Minimum Inhibitory Concentration (MIC), Ea): 250 µg/mL
- MIC [3]: > 500 µg/mL
- MIC ([4]; pH 6.8, 30° C.): 100 µg/mL
- MIC ([4]; pH 8.2, 30° C.): > 500 µg/mL
- MIC (Candida albicans (Ca)): > 500 µg/mL
- MIC ([5]; pH 6.8, read-out: Minimum Inhibitory Concentration (MIC), Kp): 50 µg/mL
- MIC ([5]; pH 8.2, read-out: Minimum Inhibitory Concentration (MIC), Kp): 250 µg/mL
- MIC (Escherichia coli (Ec); pH 6.8, read-out: Minimum Inhibitory Concentration (MIC), Ec): 100 µg/mL
- MIC (Escherichia coli (Ec); pH 8.2, read-out: Minimum Inhibitory Concentration (MIC), Ec): 250 µg/mL
- MIC [6]: > 500 µg/mL
- MIC (Saccharomyces cerevisiae): 500 µg/mL
- MIC (Fusarium oxysporum (Fo)): > 500 µg/mL
- MIC ([7]; pH 6.8, read-out: Minimum Inhibitory Concentration (MIC), PRD): 100 µg/mL
- MIC ([7]; pH 8.2, read-out: Minimum Inhibitory Concentration (MIC), PRD): 500 µg/mL
- MIC (Salmonella choleraesuis; pH 6.8, read-out: Minimum Inhibitory Concentration (MIC), SC): 50 µg/mL
- MIC (Salmonella choleraesuis; pH 8.2, read-out: Minimum Inhibitory Concentration (MIC), SC): 100 µg/mL
